In patent EP4241843B1, “ALCOHOL DERIVATIVES AS KV7 POTASSIUM CHANNEL OPENERS” (H. Lundbeck A/S, priority 2018, dated 2019):

What was measured:
[1] = biological target: T1, HEK-hKv7.2/hKv7.3 cells (Homo sapiens, UniProt O43525+O43526); test: Thallium influx assay for potassium channel activation; type: cell-based; conditions: AUC as readout, normalized to a reference compound
T1 construct: P2A self-cleaving peptide between the two subunits (remnant after ribosomal skipping); expressed in transfected cells
Protocol: (§1) A synthesized cDNA fragment encoding human Kv7.3 and human Kv7.2 separated by a P2A sequence was inserted into the pcDNA5/FRT/TO vector using the BamHI and XhoI restriction sites. The construct was then transfected into HEK Flp-In 293 cells using Lipofectamine2000. The transfected cells were grown for 48 hours in DMEM containing 10% (v/v) FBS and 1% PenStrep and subsequently maintained under selection in DMEM containing 10% (v/v) FBS, 1 % PenStrep and 200 ug/mL Hygromycin B at 37°C in a humidified atmosphere of 5% CO2.
The thallium influx assay for potassium channel activation was performed analogously to a published procedure (C.D. Weaver, et al., J Biomol Screen 2004, 9, 671-677) using the FLIPR Potassium Assay kit (Molecular Devices). HEK-hKv7.2/hKv7.3 cells were plated onto 96-well, black-walled, clear-bottomed culture plates (Corning, Acton, MA, USA) at a density of 80,000 cells/well (100 µl/well) if the cells were assayed the following day, or 40,000 cells/well (100 µl/well) if the cells were assayed two days after seeding.
On the assay day, the medium was removed after which 50 uL/well of test compound diluted to 2x final concentration in HBSS containing 20 mM HEPES, and 50 uL/well of 2x dye load buffer were added. The cells were then incubated for 60 min at room temperature in the dark. Chloride-free stimulation buffer containing Tl^+ and K^+ at 5x final concentration (5x concentration: 5 mM in both cases) and test compound at 1x final concentration, were prepared during the incubation. The cells were then assayed in a FDSS7000EX Functional Drug Screening System (Hamamatsu). Following 60 sec of baseline fluorescence signal reading at 0.1 Hz, and 10 sec at 1 Hz, 25 uL/well of stimulation buffer were added and the fluorescence continuously measured for 50 sec at 1 Hz followed, by 4 min at 0.1 Hz. Compound effect was quantified using AUC as readout and normalized to a reference compound, which was included on each plate.

[2] = biological target: T2, hKv7.2/hKv7.3 cell line (HEK-hKv7.2/hKv7.3) (Homo sapiens, UniProt O43525+O43526); test: Automated whole cell patch-clamp functional test of the stable cell line; type: cell-based; conditions: stable HEK-hKv7.2/hKv7.3 cell line
T2 construct: P2A self-cleaving peptide between the two subunits (remnant after ribosomal skipping); expressed in transfected cells
Protocol: as §1

T1 sequence (O43525 whole entry): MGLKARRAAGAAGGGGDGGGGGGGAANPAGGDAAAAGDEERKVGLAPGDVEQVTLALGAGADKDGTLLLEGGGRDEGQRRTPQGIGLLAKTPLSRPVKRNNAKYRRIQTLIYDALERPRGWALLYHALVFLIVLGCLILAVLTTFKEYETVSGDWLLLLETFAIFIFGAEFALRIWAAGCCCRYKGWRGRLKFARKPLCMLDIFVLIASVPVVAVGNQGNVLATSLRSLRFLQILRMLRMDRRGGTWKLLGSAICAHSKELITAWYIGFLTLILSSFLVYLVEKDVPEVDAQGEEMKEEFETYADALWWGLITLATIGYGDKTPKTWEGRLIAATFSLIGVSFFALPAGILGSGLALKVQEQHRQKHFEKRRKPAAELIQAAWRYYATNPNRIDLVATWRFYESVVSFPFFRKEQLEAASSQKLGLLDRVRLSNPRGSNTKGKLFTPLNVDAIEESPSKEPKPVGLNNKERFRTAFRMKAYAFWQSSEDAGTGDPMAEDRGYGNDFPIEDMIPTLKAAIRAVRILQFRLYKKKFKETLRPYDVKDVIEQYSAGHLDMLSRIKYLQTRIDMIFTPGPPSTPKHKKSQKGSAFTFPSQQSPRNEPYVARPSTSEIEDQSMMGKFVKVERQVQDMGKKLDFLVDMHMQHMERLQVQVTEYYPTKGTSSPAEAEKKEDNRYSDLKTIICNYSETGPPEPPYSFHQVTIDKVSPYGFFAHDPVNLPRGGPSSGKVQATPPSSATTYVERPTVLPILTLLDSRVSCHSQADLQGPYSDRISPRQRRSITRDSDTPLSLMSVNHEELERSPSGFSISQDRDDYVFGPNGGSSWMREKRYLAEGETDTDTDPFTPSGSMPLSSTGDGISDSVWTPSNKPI
T1 sequence (O43526 whole entry): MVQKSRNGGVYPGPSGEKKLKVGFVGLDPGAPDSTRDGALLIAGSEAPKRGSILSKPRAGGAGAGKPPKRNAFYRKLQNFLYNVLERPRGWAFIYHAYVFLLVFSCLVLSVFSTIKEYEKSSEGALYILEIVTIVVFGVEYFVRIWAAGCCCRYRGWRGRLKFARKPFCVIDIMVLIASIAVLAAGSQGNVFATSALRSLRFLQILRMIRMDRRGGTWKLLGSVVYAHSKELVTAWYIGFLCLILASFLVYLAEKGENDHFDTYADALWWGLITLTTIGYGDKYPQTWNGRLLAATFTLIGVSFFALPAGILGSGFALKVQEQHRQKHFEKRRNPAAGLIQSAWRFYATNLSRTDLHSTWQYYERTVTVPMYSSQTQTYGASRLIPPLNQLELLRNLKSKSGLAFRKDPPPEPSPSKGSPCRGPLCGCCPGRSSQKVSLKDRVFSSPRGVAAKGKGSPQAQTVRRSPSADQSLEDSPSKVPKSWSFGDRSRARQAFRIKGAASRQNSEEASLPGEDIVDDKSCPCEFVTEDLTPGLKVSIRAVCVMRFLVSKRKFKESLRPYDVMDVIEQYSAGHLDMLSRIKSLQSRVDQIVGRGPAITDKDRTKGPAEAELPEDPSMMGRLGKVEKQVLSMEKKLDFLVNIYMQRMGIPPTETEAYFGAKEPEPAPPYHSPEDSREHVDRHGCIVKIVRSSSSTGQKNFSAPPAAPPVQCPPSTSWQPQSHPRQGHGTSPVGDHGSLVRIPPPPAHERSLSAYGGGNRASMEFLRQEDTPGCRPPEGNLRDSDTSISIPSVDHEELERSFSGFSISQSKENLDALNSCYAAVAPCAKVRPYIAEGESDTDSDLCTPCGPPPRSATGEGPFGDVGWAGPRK
T2 sequence (O43525 whole entry): as the sequence (O43525 whole entry) above
T2 sequence (O43526 whole entry): as the sequence (O43526 whole entry) above

SMILES | EC50 [1] | effect on Kv7-current [2]
C[C@H](NC(=O)C[C@H](O)C(C)(C)C)c1cccc(OC(F)(F)F)c1 [Example 1a, (S)-3-Hydroxy-4,4-dimethyl-N-((S)-1-(3-(trifluoromethoxy)phenyl)ethyl)pentanamide] | 0.68 µM | –
CCOC(=O)Nc1ccc(NCc2ccc(F)cc2)cc1N [Retigabine, N-(2-amino-4-(4-fluorobenzylamino)-phenyl) carbamic acid ethyl ester] | – | potentiated
C[C@H](NC(=O)CC(O)C1CC(F)(F)C1)c1cccc(OC(F)(F)F)c1 (stereo in doubt) [Example 11a, 3-(3,3-Difluorocyclobutyl)-3-hydroxy-N-((S)-1-(3-(trifluoromethoxy)phenyl)ethyl)propanamide] | 1.5 µM | –
O=C1c2ccccc2C(Cc2ccncc2)(Cc2ccncc2)c2ccccc21 [XE991] | – | sensitive
C[C@H](NC(=O)CC(O)(C(F)(F)F)C(F)(F)F)c1cccc(OC(F)(F)F)c1 [Example 9, 4,4,4-Trifluoro-3-hydroxy-N-[(1S)-1-[3-(trifluoro-methoxy)phenyl]ethyl]-3-(trifluoromethyl)butanamide] | 0.56 µM | –
C[C@H](NC(=O)CC1(O)CCC1)c1cccc(OCC(F)(F)F)c1 [Example 6, (S)-2-(1-Hydroxycyclobutyl)-N-(1-(3-(2,2,2-trifluoroethoxy)phenyl)ethyl) acetamide] | 3 µM | –
COC[C@H](NC(=O)CC1(O)CCCC1)c1cccc(OC(F)(F)F)c1 [Example 17, (R)-2-(1-Hydroxycyclopentyl)-N-(2-methoxy-1-(3-(trifluoromethoxy)phenyl)ethyl) acetamide] | 2.5 µM | –
C[C@H](NC(=O)C[C@@H](O)C(C)(C)C)c1cccc(OC(F)(F)F)c1 [Example 1b, (R)-3-Hydroxy-4,4-dimethyl-N-[(1S)-1-[3-(trifluoromethoxy)phenyl]ethyl]pentanamide] | 3.3 µM | –
C[C@H](NC(=O)CC1(O)CC(F)(F)C1)c1cccc(OC(F)(F)F)c1 [Example 5, (S)-2-(3,3-difluoro-1-hydroxycyclobutyl)-N-(1-(3-(trifluoromethoxy)phenyl)ethyl)acetamide] | 1.8 µM | –
